In paper PMC6272497, “Biological Activities and Cytotoxicity of Diterpenes from Copaifera spp. Oleoresins” (Molecules, 2015):
“Also recorded” adds a separate entry of the source.

Experiments:
[1] = tested on: MCP-1 production in RAW 264.7 murine macrophages; set-up: method as in PMID 18267111; details: 20 µM to 50 µM; cited from earlier work
[2] = tested on: TNF-α production in RAW 264.7 murine macrophages; set-up: method as in PMID 18267111; details: 20 µM to 50 µM; cited from earlier work
IL-6 production = IL-6 production in LPS-stimulated J774 cells (CBA); type: cell-based, murine; details: for inhibition of IL-6 production (words): LPS-stimulated J774
Procedure: Figure 2 Effect of the isolated diterpenic acids on nitric oxide (NO^•) and cytokine production in lipopolysaccharide-stimulated J774 cells. (A) TNF-α, (B) IL-6 and (C) IL-10 and (D) NO^•. […] The nitrite and cytokines values are the mean ± S.D. from three independent experiments. Indomethacin was used as a standard. Statistical analysis was performed using the Holm-Sidak multiple comparison. * p < 0.05 when compared to control stimulated with LPS. (1) 3-hydroxy-copalic acid, (2) kaurenoic acid, (3) 3-acetoxy-copalic acid, (4) kolavic acid 15-methyl ester, (5) copalic acid and (6) hardwickiic acid.
[…] The culture supernatants were collected after 24 h of LPS stimulation. The levels of cytokines in the culture media were measured by flow cytometry (BD Cytometric Bead Array—CBA—Mouse Inflammation kit) according to the manufacturer’s instructions.

NIHOVCAR (ovary) = experiment: Alamar Blue assay, tumoral cells NIHOVCAR; type: cell-based; details: 72 h, 20 µmol/L; listed as Kaurenoic Acid
Procedure: (§1) We also investigated possible cytotoxic effects on tumor cell lines (Table 1). To characterize this activity, the compounds were tested in different tumor cell lines, among which were AGP-01 (gastric), HCT116 (colorectal), MCF07 (breast cancer), NIHOVCAR (ovary), SKAMELL-4 (melanoma), and SF-295 (human glioblastoma), each at a concentration of 20 µM.
(§2) Cytotoxicity assay. The cytotoxicity of diterpene compounds to the murine macrophage cell line J774 was determined by the Alamar Blue method as described by Nakayama et al.. Briefly, adherent cells (5 × 10^3 cells/well) were grown in 96-well tissue culture plates and exposed to substances (2.5 to 10 µg/mL) for 24, 48 and 72 h. After incubation, the Alamar Blue solution (10 μL of 0.4% Alamar Blue (resazurin) in PBS) was added and the cells were incubated for 3 h at 37 °C. Fluorescence was measured (excitation at 545 nm and emission at 595 nm) and expressed as a percentage of the cells in the control after background fluorescence was subtracted. As a positive control of cell death, doxorubicin (5 µg/mL) was used. The assays were performed in triplicate. For the assays with tumoral cells, an Alamar Blue assay was performed using the following cell lines: AGP01—gastric; HCT116—colorectal; MCF07—breast cancer; NIHOVCAR—ovary; SKAMELL4—melanoma; SF295—human glioblastoma, which were seeded in 96-well plates (0.5 × 10^4 cells per well) and incubated in a CO2 atmosphere at 5% and 37 °C. After 24 h, diterpenes at 20 µM were added to each well and incubated for 72 h. Doxorubicin (10 μM) was used as a positive control and DMSO (0.1%) as a negative control. Before the end of the incubation, 10 µL of Alamar Blue (0.02%) was added to each well. The fluorescent signal was monitored using a multiplate reader using a 530–560 nm excitation wavelength and 590 nm emission wavelength. The fluorescent signal generated from the assay was proportional to the number of live cells in the sample, according to the manufacturer.

[3] = tested on: HCT -8 cells (colon cancer); set-up: method as in PMID 12165328; details: single concentration of 78 µM; cited from earlier work
[4] = tested on: SF295 (human glioblastoma); experiment: Alamar Blue assay, tumoral cells SF295; type: cell-based; details: 72 h, 20 µmol/L
Procedure: as §1, §2

erythrocyte = experiment: Hemolysis test
Procedure: The assay for the characterization of hemolytic activity aimed to evaluate the potential of diterpenes on lysis of the cell membrane.
Blood was collected in heparinized-tubes from Wistar rats, and washed three times with saline solution (NaCl 0.85% + CaCl2 10 mM) by centrifugation at 700 g for 10 min. The pellet of erythrocyte was re-suspended in saline solution for preparation of erythrocyte suspension −2% (SE). A total of 100 µL of the samples of diluted diterpenes was added to 96-well microplates in different concentrations (6.25 to 800 µM); 100 µL of SE was then added; and the samples were incubated for 60 min at 37 °C under constant agitation. The release of hemoglobin was determined after centrifugation (700 g for 10 min) by photometric analysis of the supernatant at 540 nm. Complete hemolysis was achieved using 0.2% Triton X-100 yielding the 100% control value.

[5] = tested on: TNF-α production and expression; set-up: method as in PMID 18313400; details: 1 to 20 mg/mL; kaurenoic acid from Helianthus annuus L.; cited from earlier work
AGP01 (gastric) = experiment: Alamar Blue assay, tumoral cells AGP01; type: cell-based; details: 72 h, 20 µmol/L; listed as Kaurenoic Acid
Procedure: as §1, §2

IL-10 production = IL-10 production in LPS-stimulated J774 cells (CBA); type: cell-based, murine
Procedure: Figure 2 Effect of the isolated diterpenic acids on nitric oxide (NO^•) and cytokine production in lipopolysaccharide-stimulated J774 cells. (A) TNF-α, (B) IL-6 and (C) IL-10 and (D) NO^•. Production of NO^• was assayed in culture supernatants of macrophages stimulated with LPS (1 µg/mL) for 24 h in the presence of the four compounds (25 µg/mL to cytokines and 50 µg/mL to NO^•). The nitrite and cytokines values are the mean ± S.D. from three independent experiments. Indomethacin was used as a standard. Statistical analysis was performed using the Holm-Sidak multiple comparison. * p < 0.05 when compared to control stimulated with LPS. (1) 3-hydroxy-copalic acid, (2) kaurenoic acid, (3) 3-acetoxy-copalic acid, (4) kolavic acid 15-methyl ester, (5) copalic acid and (6) hardwickiic acid.
Macrophage cells (1 × 10^6 cells/mL) were incubated with different concentrations of diterpene compounds (12.5 to 50 μM), and then stimulated with 1 μg/mL of LPS. The culture supernatants were collected after 24 h of LPS stimulation. The levels of cytokines in the culture media were measured by flow cytometry (BD Cytometric Bead Array—CBA—Mouse Inflammation kit) according to the manufacturer’s instructions.

CEM (leukemia) = tested on: CEM (leukemia); set-up: method as in PMID 12165328; details: single concentration of 78 µM; cited from earlier work
[6] = tested on: NO production in RAW 264.7 macrophage stimulated by LPS; set-up: method as in PMID 16280009; details: RAW 264.7, LPS; kaurenoic acid from Aralia continentalis; read-out: inhibition of NO production IC50; cited from earlier work
SKMELL28 (melanoma) = experiment: Alamar Blue assay, tumoral cells SKMELL28; type: cell-based; details: 72 h, 20 µmol/L
Procedure: as §1, §2

[7] = tested on: nitric oxide production in J774 macrophages stimulated with LPS; experiment: NO production assay (Griess) in LPS-stimulated J774 cells; type: cell-based, murine; details: Mus musculus; J774, LPS 1 µg/mL, 24 h; read-out: inhibition of NO production IC50
Procedure: Our study evaluated the effects of diterpene compounds on the production of nitric oxide in the murine macrophage cell line J774 stimulated with LPS (Figure 2D). NO^• levels were measured by the Greiss method. […] Similar results for kaurenoic acid were observed by Choi et al. […] Figure 2 Effect of the isolated diterpenic acids on nitric oxide (NO^•) and cytokine production in lipopolysaccharide-stimulated J774 cells. (A) TNF-α, (B) IL-6 and (C) IL-10 and (D) NO^•. […] The nitrite and cytokines values are the mean ± S.D. from three independent experiments. Indomethacin was used as a standard. Statistical analysis was performed using the Holm-Sidak multiple comparison. * p < 0.05 when compared to control stimulated with LPS. (1) 3-hydroxy-copalic acid, (2) kaurenoic acid, (3) 3-acetoxy-copalic acid, (4) kolavic acid 15-methyl ester, (5) copalic acid and (6) […]. NO^• production by J774 cells was assayed by measuring the accumulation of nitrite in the culture medium using a Griess reaction. Briefly, after incubation of the cells (1 × 10^6 cells/mL) with diterpene compounds in different concentrations from 6.25 to 100 μM, cells were incubated for 24 h with LPS (1 μg/mL), at 37 °C in a 5% CO2 incubator. Nitric oxide was measured as NO2 in culture supernatant by reaction with Griess reagent. Absorbance of the reaction product was determined at 560 nm using a microplate reader (DTX 800, Beckman). Sodium nitrite was used as a standard to calculate nitrite concentrations.

HCT-116 (colorectal) = experiment: Alamar Blue assay, tumoral cells HCT-116; type: cell-based; details: 72 h, 20 µmol/L; listed as Kaurenoic Acid
Procedure: as §1, §2

MCF -7 (breast cancer) = tested on: MCF -7 (breast cancer); set-up: method as in PMID 12165328; details: single concentration of 78 µM; cited from earlier work
MCF7 (breast cancer) = experiment: Alamar Blue assay, tumoral cells MCF7; type: cell-based; details: 72 h, 20 µmol/L
Procedure: as §1, §2

CC(C)c1ccc2c(c1)CC[C@H]1[C@](C)(C(=O)O)CCC[C@]21C [Dehydroabietic acid]
suppression of MCP-1 production [1]: suppresses production
suppression of TNF-α production [2]: suppresses production

C=C1C[C@@]23CC[C@H]4[C@@](C)(CCC[C@@]4(C)C(=O)O)[C@@H]2CC[C@@H]1C3 [kaurenoic acid]
inhibition of IL-6 production (words) (IL-6 production; listed as Kaurenoic): inhibited the production of IL-6
inhibition of IL-6 production (words) (IL-6 production; listed as kaurenoic): inhibited IL-6 production
inhibition at 25 µM (IL-6 production; Mus musculus, J774, 25 µM (abstract)): 11.2%
Viability inhibition (%) NIHOVCAR (NIHOVCAR (ovary)): ≤0.01%
inhibition of HCT-8 tumor cells [3]: 45%
Viability inhibition (%) SF295 ([4]; listed as Kaurenoic Acid): 28.0 ± 6.5%
Viability inhibition (%) SF295 ([4]; listed as kaurenoic): around 20%
hemolytic activity (erythrocyte; 100 µM (abstract)): 61.7%
hemolytic activity (erythrocyte; 100 mM (so in the source)): 61.7%
inhibition of TNF-α production and expression [5]: inhibitory activity on the production and expression of TNF-α
Viability inhibition (%) AGP01 (AGP01 (gastric)): 28.1 ± 4.3%
IL-10 production (words) (IL-10 production; 12.5 µM and 25 µM): induced the production of IL-10
IL-10 production (words) (IL-10 production; 50 µM): this induction decreased
IL-10 production (words) (IL-10 production; LPS-stimulated J774, 12.5 to 50 µM): increased IL-10 production; also recorded: induced IL-10 production; also recorded: induced production of interleukin-10
inhibition of CEM tumor cells (CEM (leukemia)): 95%
IC50 [6]: 51.7 ± 2.4 µM
Viability inhibition (%) SKMELL28 (SKMELL28 (melanoma)): ≤0.01%
IC50 [7]: 61.2 ± 4.2 µM
Viability inhibition (%) HCT-116 (HCT-116 (colorectal)): 0.27 ± 4.3%
inhibition of MCF-7 tumor cells (MCF -7 (breast cancer)): 45%
Viability inhibition (%) MCF7 (MCF7 (breast cancer)): ≤0.01%
